Reference: patent publication US20220227813A1, “Ras INHIBITORY PEPTIDE” (ICHIMARU PHARCOS CO., LTD., priority 2019, published 2022)
Positions of bridges follow the written chain, without caps; N, C: chain ends. Non-standard residues stand in square brackets, D forms with d. Phe(4-F) = N[C@@H](Cc1ccc(F)cc1)C(=O)O; Aoc(2) = CCCCCC[C@H](N)C(=O)O; NMeV = CN[C@H](C(=O)O)C(C)C; Nle = CCCC[C@H](N)C(=O)O; βAla = NCCC(=O)O

Tests used:
[1] = resistance to protease degradation in rat plasma (RP-HPLC); type: in vitro ADME; conditions: 37° C., 24 hours compared to 0 hours
Protocol: For 1 μL of each 10 mM peptide, 20 μL of rat plasma was added and incubated at 37° C. for an arbitrary time (0 or 24 hours). […] To remove plasma proteins, the mixture was centrifuged at a speed of 15,000 rpm under 4° C. for 10 min. The supernatant was collected and the remaining amount of peptide was detected by RP-HPLC (solution A: 0.1% TFA/water, solution B: 0.1% TFA/acetonitrile, 20 min gradient of 80% solution A→10% solution A at 1 mL/min) using a SunFire C18 column (5 μm, 4.6×^150 mm).

[2] = molecular target: N-Ras (Q61K) (Homo sapiens, UniProt P01111, Q61K); assay: peptide concentration-dependent binding of biotin-modified peptide (ELISA)
Text: (§1) The ELISA method is briefly described below.

[3] = molecular target: K-Ras(G12C) (Homo sapiens, UniProt P01116, G12C); assay: as above
Text: as §1

[4] = molecular target: K-Ras(G12V) (Homo sapiens, UniProt P01116, G12V); assay: as above
Text: as §1

[5] = molecular target: wild-type K-Ras (Homo sapiens, UniProt P01116); assay: as above
Text: as §1

[6] = molecular target: H-Ras (Q61L) (Homo sapiens, UniProt P01112, Q61L); assay: as above
Text: as §1

[7] = molecular target: H-Ras (G12V) (Homo sapiens, UniProt P01112, G12V); assay: as above
Text: as §1

[8] = molecular target: wild-type N-Ras (Homo sapiens, UniProt P01111); assay: as above
Text: as §1

[9] = molecular target: K-Ras(G13D) (Homo sapiens, UniProt P01116, G13D); assay: as above
Text: as §1

[10] = molecular target: wild-type H-Ras (Homo sapiens, UniProt P01112); assay: as above
Text: as §1

[11] = molecular target: K-Ras(G12D) (Homo sapiens, UniProt P01116, G12D); assay: as above
[12] = tested on: negative control protein
[13] = molecular target: T1, K-Ras(G12D) (UniProt P01116-2 1-188, limits assumed); assay: competitive ELISA, K-Ras(G12D) coated, competitor Biotin-KRpep-2d 100 nM; IC50 relative to KRpep-2d = 1; N=4
T1 construct: Bought recombinant protein coated on ELISA plates in buffer with 10 mM MgCl2 and 10 uM GDP; also called recombinant protein of Ras

[14] = bond between positions 4 and 11 cleaved, monocyclic

c[βAla-Pro-Nle-c(Cys-Aoc-Ser-4fF-Asp-Pro-^mVal-^DCys)] (cyclo([βAla]P[Nle]C[Aoc(2)]S[Phe(4-F)]DP[NMeV][dC]); linker 4-11 via 1,2‑diiodoethane) [Seq-20]
peptide-derived RP-HPLC peak remaining after incubation in rat plasma [1]: remained almost the same

c[βAla-Pro-Nle-c(^DCys-Aoc-Ser-^m4fF-Asp-Lys(εNH-Biotin)-^mVal-^DCys)] [Biotin-BC-1]
peptide concentration-dependent binding [2]: concentration-dependent binding
binding activity under the reducing condition [2, 14]: greatly weakened
peptide concentration-dependent binding [3]: concentration-dependent binding
binding activity under the reducing condition [3, 14]: greatly weakened
peptide concentration-dependent binding [4]: concentration-dependent binding
binding activity under the reducing condition [4, 14]: greatly weakened
peptide concentration-dependent binding [5]: concentration-dependent binding
binding activity under the reducing condition [5, 14]: greatly weakened
peptide concentration-dependent binding [6]: concentration-dependent binding
binding activity under the reducing condition [6, 14]: greatly weakened
peptide concentration-dependent binding [7]: concentration-dependent binding
binding activity under the reducing condition [7, 14]: greatly weakened
peptide concentration-dependent binding [8]: concentration-dependent binding
binding activity under the reducing condition [8, 14]: greatly weakened
peptide concentration-dependent binding [9]: concentration-dependent binding
binding activity under the reducing condition [9, 14]: greatly weakened
peptide concentration-dependent binding [10]: concentration-dependent binding
binding activity under the reducing condition [10, 14]: greatly weakened
peptide concentration-dependent binding ([11]; K-Ras(G12D) coated plate, SA-HRP detection): concentration-dependent binding
binding activity under the reducing condition ([11]; K-Ras(G12D), bond between positions 4 and 11 cleaved, monocyclic): greatly weakened
binding activity to negative control protein [12]: no binding activity

Biotin-Arg-Arg-Arg-Arg-c(Cys-Pro-Leu-Tyr-Ile-Ser-Tyr-Asp-Pro-Val-Cys)-Arg-Arg-Arg-Arg-NH2 [Biotin-KRpep-2d, reference compound]
binding activity to negative control protein [12]: did not show binding activity

B1: 2d-8-Trp (peptide)
peptide: RRRRCPLWISYDPVCRRRR
HELM: PEPTIDE1{[ac].R.R.R.R.C.P.L.W.I.S.Y.D.P.V.C.R.R.R.R.[am]}$PEPTIDE1,PEPTIDE1,6:R3-16:R3$$$V2.0
SMILES: CC[C@H](C)[C@@H]1NC(=O)[C@H](Cc2c[nH]c3ccccc23)NC(=O)[C@H](CC(C)C)NC(=O)[C@@H]2CCCN2C(=O)[C@@H](NC(=O)[C@H](CCCNC(=N)N)NC(=O)[C@H](CCCNC(=N)N)NC(=O)[C@H](CCCNC(=N)N)NC(=O)[C@H](CCCNC(=N)N)NC(C)=O)CSSC[C@@H](C(=O)N[C@@H](CCCNC(=N)N)C(=O)N[C@@H](CCCNC(=N)N)C(=O)N[C@@H](CCCNC(=N)N)C(=O)N[C@@H](CCCNC(=N)N)C(N)=O)NC(=O)[C@H](C(C)C)NC(=O)[C@@H]2CCCN2C(=O)[C@H](CC(=O)O)NC(=O)[C@H](Cc2ccc(O)cc2)NC(=O)[C@H](CO)NC1=O
Binding intensity (fold vs KRpep-2d) [13]: 2.6 fold

B2: 2d-10-Thr (peptide)
peptide: RRRRCPLYITYDPVCRRRR
HELM: PEPTIDE1{[ac].R.R.R.R.C.P.L.Y.I.T.Y.D.P.V.C.R.R.R.R.[am]}$PEPTIDE1,PEPTIDE1,6:R3-16:R3$$$V2.0
SMILES: CC[C@H](C)[C@@H]1NC(=O)[C@H](Cc2ccc(O)cc2)NC(=O)[C@H](CC(C)C)NC(=O)[C@@H]2CCCN2C(=O)[C@@H](NC(=O)[C@H](CCCNC(=N)N)NC(=O)[C@H](CCCNC(=N)N)NC(=O)[C@H](CCCNC(=N)N)NC(=O)[C@H](CCCNC(=N)N)NC(C)=O)CSSC[C@@H](C(=O)N[C@@H](CCCNC(=N)N)C(=O)N[C@@H](CCCNC(=N)N)C(=O)N[C@@H](CCCNC(=N)N)C(=O)N[C@@H](CCCNC(=N)N)C(N)=O)NC(=O)[C@H](C(C)C)NC(=O)[C@@H]2CCCN2C(=O)[C@H](CC(=O)O)NC(=O)[C@H](Cc2ccc(O)cc2)NC(=O)[C@H]([C@@H](C)O)NC1=O
Binding intensity (fold vs KRpep-2d) [13]: 0.9 fold

B3: 2d-14-Trp (peptide)
peptide: RRRRCPLYISYDPWCRRRR
HELM: PEPTIDE1{[ac].R.R.R.R.C.P.L.Y.I.S.Y.D.P.W.C.R.R.R.R.[am]}$PEPTIDE1,PEPTIDE1,6:R3-16:R3$$$V2.0
SMILES: CC[C@H](C)[C@@H]1NC(=O)[C@H](Cc2ccc(O)cc2)NC(=O)[C@H](CC(C)C)NC(=O)[C@@H]2CCCN2C(=O)[C@@H](NC(=O)[C@H](CCCNC(=N)N)NC(=O)[C@H](CCCNC(=N)N)NC(=O)[C@H](CCCNC(=N)N)NC(=O)[C@H](CCCNC(=N)N)NC(C)=O)CSSC[C@@H](C(=O)N[C@@H](CCCNC(=N)N)C(=O)N[C@@H](CCCNC(=N)N)C(=O)N[C@@H](CCCNC(=N)N)C(=O)N[C@@H](CCCNC(=N)N)C(N)=O)NC(=O)[C@H](Cc2c[nH]c3ccccc23)NC(=O)[C@@H]2CCCN2C(=O)[C@H](CC(=O)O)NC(=O)[C@H](Cc2ccc(O)cc2)NC(=O)[C@H](CO)NC1=O
Binding intensity (fold vs KRpep-2d) [13]: 3.4 fold
